Reference: ChEMBL document CHEMBL2396570, “Structural basis for the design and synthesis of selective HDAC inhibitors” (Bioorg Med Chem, 2013)

Tests used:
Homo sapiens [1] = species on record: Homo sapiens; experiment: Selectivity ratio for human HDAC4 over human HDAC1
Homo sapiens [2] = species on record: Homo sapiens; experiment: Selectivity ratio for human HDAC4 over human HDAC2
Homo sapiens [3] = species on record: Homo sapiens; experiment: Selectivity ratio for human HDAC4 over human HDAC3
Homo sapiens [4] = species on record: Homo sapiens; experiment: Selectivity ratio for human HDAC4 over human HDAC8

Selectivity ratio (Homo sapiens [1]): 176
Selectivity ratio (Homo sapiens [2]): 176
Selectivity ratio (Homo sapiens [3]): 176
Selectivity ratio (Homo sapiens [4]): 176
SMILES: Cn1cc(/C=C/C(=O)c2cccc(F)c2)cc1/C=C/C(=O)NO
